Results on 10 compounds are retold here after ChEMBL document CHEMBL4406876, “Design, synthesis and biological research of novel N-phenylbenzamide-4-methylamine acridine derivatives as potential topoisomerase I/II and apoptosis-inducing agents” (Bioorg Med Chem Lett, 2019).

Structures are written as SMILES. Calls of active or inactive are those of the source. The calls are words filed in the database; no cut-off is given here.

Test [1] relates to CCRF-CEM. The test can be described thus: Induction of apoptosis in human CCRF-CEM cells at 0.5 to 2 uM incubated for 48 hrs by Hoechst 33342/PI staining based fluorescence based assay. Format: functional, cell-based.
The test system of test [2] is CCRF-CEM. The test can be described thus: Induction of DNA damage in human CCRF-CEM cells assessed as increase in gammaH2AX incubated for 48 hrs by Western blot analysis. Format: functional, cell-based. A general note: A western blot detects proteins with antibodies after separation by electrophoresis.
A further test deals with U-937. The test can be described thus: Antiproliferative against human U937 cells incubated for 72 hrs by MTT assay. Format: functional, cell-based. As to conditions: U-937, 72 h. In general terms: Tetrazolium assays rely on reduction of a dye to a coloured formazan, in cell work by metabolically active cells.
In a further test the test system is K562. The test can be described thus: Antiproliferative against human K562 cells incubated for 72 hrs by MTT assay. The test is classed as functional, cell-based. As to conditions: K562, 72 h.
The target in test [3] is T1, DNA topoisomerase 1 (Homo sapiens) (UniProt P11387).
T1 sequence (whole entry): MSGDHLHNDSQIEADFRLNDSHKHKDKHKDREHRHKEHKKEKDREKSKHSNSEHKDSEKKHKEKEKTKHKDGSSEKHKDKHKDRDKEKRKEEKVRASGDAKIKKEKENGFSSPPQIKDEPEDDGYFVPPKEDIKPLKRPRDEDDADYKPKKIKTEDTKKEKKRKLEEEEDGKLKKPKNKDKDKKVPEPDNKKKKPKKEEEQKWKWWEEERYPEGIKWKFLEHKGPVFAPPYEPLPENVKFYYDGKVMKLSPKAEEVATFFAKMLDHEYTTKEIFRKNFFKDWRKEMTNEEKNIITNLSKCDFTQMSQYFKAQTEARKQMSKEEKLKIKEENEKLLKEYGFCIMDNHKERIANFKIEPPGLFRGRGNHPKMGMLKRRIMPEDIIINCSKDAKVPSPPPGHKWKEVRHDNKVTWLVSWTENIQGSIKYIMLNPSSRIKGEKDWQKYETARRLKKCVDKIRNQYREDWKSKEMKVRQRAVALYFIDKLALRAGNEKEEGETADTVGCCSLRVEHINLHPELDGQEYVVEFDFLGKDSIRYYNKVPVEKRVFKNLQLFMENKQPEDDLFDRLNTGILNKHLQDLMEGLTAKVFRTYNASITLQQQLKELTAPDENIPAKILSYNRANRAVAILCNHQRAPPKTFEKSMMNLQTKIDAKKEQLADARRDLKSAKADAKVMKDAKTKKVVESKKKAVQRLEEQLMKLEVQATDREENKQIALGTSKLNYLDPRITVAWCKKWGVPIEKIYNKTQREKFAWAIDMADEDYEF
The test can be described thus: Inhibition of DNA topoisomerase-1 (unknown origin) at 100 uM relative to control.

Test [4] deals with DNA topoisomerase II (Homo sapiens) (UniProt P11388+Q02880). The test can be described thus: Inhibition of DNA topoisomerase-2 (unknown origin) at 100 uM relative to control. Format: protein assay.
Test [5] concerns CCRF-CEM. The test can be described thus: Induction of apoptosis in human CCRF-CEM cells assessed as increase in necrotic cells incubated for 48 hrs by Annexin V-FITC/PI staining based fluorescence based assay. Format: functional, cell-based.
Test [6] deals with CCRF-CEM. The test can be described thus: Induction of apoptosis in human CCRF-CEM cells assessed as increase in late apoptotic cells incubated for 48 hrs by Annexin V-FITC/PI staining based fluorescence based assay. Format: functional, cell-based.
Test [7] concerns CCRF-CEM. The test can be described thus: Induction of apoptosis in human CCRF-CEM cells assessed as increase in early apoptotic cells at 2 uM incubated for 48 hrs by Annexin V-FITC/PI staining based fluorescence based assay. Format: functional, cell-based.
In test [8] the test system is CCRF-CEM. The test can be described thus: Induction of apoptosis in human CCRF-CEM cells assessed as increase in early apoptotic cells at 0.5 uM incubated for 48 hrs by Annexin V-FITC/PI staining based fluorescence based assay. The test is classed as functional, cell-based.
Test [9] relates to CCRF-CEM. The test can be described thus: Antiproliferative against human CCRF-CEM cells incubated for 72 hrs by MTT assay. The test is classed as functional, cell-based.
The test system of test [10] is CCRF-CEM. The test can be described thus: Induction of apoptosis in human CCRF-CEM cells at 0.5 to 2 uM incubated for 48 hrs by Annexin V-FITC/PI staining based fluorescence based assay. Format: functional, cell-based.

In general, IC50 refers to the point on the concentration scale where inhibition reaches its midpoint. In general, inhibition refers to the percentage by which the read-out fell short of the control. For the compound `COc1ccc2nc3ccccc3c(NCc3ccc(C(=O)Nc4ccccc4)cc3)c2c1`, the result with CCRF-CEM [1], in the test with CCRF-CEM [7] and in the test on CCRF-CEM [8] was Active. In addition, the Activity result in the test with CCRF-CEM [2], with CCRF-CEM [5] and in the test on CCRF-CEM [6] was “Dose-dependent effect” each time. Further, the values for the concentration for half-maximal inhibition (IC50) with U-937, in the test with K562 and with CCRF-CEM [9] were 330 nM, 1240 nM and 820 nM, respectively. For the same compound, the inhibition in [3] came out at 7.2%; in [4], 17.8%.
Take `COc1ccccc1NC(=O)c1ccc(CNc2c3ccccc3nc3ccccc23)cc1`: the results for the IC50 in the test on U-937, in the test on K562 and in the test on CCRF-CEM [9] were 1490 nM, 910 nM and 1280 nM, respectively.
Take `COc1cc([C@@H]2c3cc4c(cc3[C@@H](O[C@@H]3O[C@@H]5CO[C@@H](C)O[C@H]5[C@H](O)[C@H]3O)[C@H]3COC(=O)[C@H]23)OCO4)cc(OC)c1O`: in test [4], the inhibition was 40.9%.
Take `COc1ccc2nc3cc(Cl)ccc3c(NCc3ccc(C(=O)Nc4ccccc4)cc3)c2c1`: the IC50 in the test on U-937 stood at 1800 nM; in the test with K562, 2370 nM; in the test with CCRF-CEM [9], 1300 nM.
For `COc1cc(NS(C)(=O)=O)ccc1Nc1c2ccccc2nc2ccccc12` [AMSACRINE], in that order: 80 nM, 710 nM and 30 nM.
For `COc1cccc2c(NCc3ccc(C(=O)Nc4ccccc4)cc3)c3ccccc3nc12`, in that order: 230 nM, 1430 nM and 890 nM.
For `COc1ccc2c(NCc3ccc(C(=O)Nc4ccccc4)cc3)c3ccccc3nc2c1`, in that order: 1420 nM, 1320 nM and 900 nM.
Turning to `NCc1ccc(C(=O)Nc2ccccc2)cc1`, the IC50 in the test on U-937, with K562 and in the test on CCRF-CEM [9] was above 10000 nM in each case.
Consider `O=C(Nc1ccccc1)c1ccc(CNc2c3ccccc3nc3ccccc23)cc1`, for which the 50% inhibitory concentration (IC50) with U-937 was found to be 1320 nM; with K562, 1550 nM; with CCRF-CEM [9] it was 1560 nM. The values for the inhibition in test [3] and in test [4] were 44.9% and 24%, respectively. Besides, the result in the test on CCRF-CEM [10] was Active.
As for `COc1ccc2nc3cc(Cl)ccc3c(Cl)c2c1`, the IC50 with U-937, in the test with K562 and in the test with CCRF-CEM [9] was above 10000 nM throughout.
